The assay has as its system test plant species. The assay is described as follows: Post-emergent herbicidal activity test (greenhouse, foliar spray, visual growth reduction). The assay is classed as in vivo. The following applies: post-emergence, 336 h, 140 g ai/ha, 14 days after application. A digest of the protocol: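 Greenhouse plants at first–second true leaf stage sprayed overhead at 187 L/ha with compound in acetone/water/isopropanol/DMSO/crop oil/X-77 carrier; controls received solvent blank. Injury rated visually after 14 d on a 0–100% scale versus untreated and control plants, converted to growth reduction.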

Where [1] appears, read: ALOMY: blackgrass (Alopecurus myosuroides), read-out: Visual Growth Reduction (%) 14 Days After Application, ALOMY.
The mark [2] stands for this setting: AMARE: redroot pigweed (Amaranthus retroflexus), read-out: Visual Growth Reduction (%) 14 Days After Application, AMARE.
[3] abbreviates: AVEFA: wild oat (Avena fatua), read-out: Visual Growth Reduction (%) 14 Days After Application, AVEFA.
The mark [4] stands for this setting: CHEAL: lambsquarters (Chenopodium album), read-out: Visual Growth Reduction (%) 14 Days After Application, CHEAL.
[5] abbreviates: CIRAR: canada thistle (Cirsium arvense), read-out: Visual Growth Reduction (%) 14 Days After Application, CIRAR.
The mark [6] stands for this setting: CYPES: yellow nutsedge (Cyperus esculentus), read-out: Visual Growth Reduction (%) 14 Days After Application, CYPES.
The mark [7] stands for this setting: DIGSA: crabgrass (Digitaria sanguinalis), read-out: Visual Growth Reduction (%) 14 Days After Application, DIGSA.
[8] abbreviates: ECHCG: barnyardgrass (Echinochloa crus-galli), read-out: Visual Growth Reduction (%) 14 Days After Application, ECHCG.
[9] abbreviates: IPOHE: ivy-leaf morning glory (Ipomoea hederacea), read-out: Visual Growth Reduction (%) 14 Days After Application, IPOHE.
Where [10] appears, read: KCHSC: kochia (Bassia scoparia), read-out: Visual Growth Reduction (%) 14 Days After Application, KCHSC.
The mark [11] stands for this setting: ORYSA: rice (Oryza sativa), read-out: Visual Growth Reduction (%) 14 Days After Application, ORYSA.
[12] abbreviates: SETFA: giant foxtail (Setaria faberi), read-out: Visual Growth Reduction (%) 14 Days After Application, SETFA.
Setting [13] is: SORVU: grain sorghum (Sorghum vulgare), read-out: Visual Growth Reduction (%) 14 Days After Application, SORVU.
Where [14] appears, read: STEME: common chickweed (Stellaria media), read-out: Visual Growth Reduction (%) 14 Days After Application, STEME.
[15] abbreviates: TRZAS: wheat, spring (Triticum aestivum), read-out: Visual Growth Reduction (%) 14 Days After Application, TRZAS.

Like-named read-outs stand apart in the source and are kept apart here.

For the compound `COC(=O)c1nc(-c2c(Cl)cc(C(F)(F)F)cc2Cl)ccc1Cl` [F88, Methyl 3-chloro-6-(2,6-dichloro-4-(trifluoromethyl)phenyl)picolinate], the pest or weed control at 140 g/ha lay within 60 to 74% under setting [1]; 95 to 100% under setting [2]; 0 to 29% under setting [3]; 95 to 100% under setting [4]; 85 to 94% under setting [5]; 0 to 29% under setting [6]. In addition, the pest or weed control at 140 g/ha by setting is: under setting [7], 85 to 94%; under setting [8], 75 to 84%; under setting [9], 75 to 84%; under setting [10], 45 to 59%; under setting [11], 0 to 29%; under setting [12], 85 to 94%. The pest or weed control at 140 g/ha under setting [13] lay in the range of 85 to 94%, the pest or weed control at 140 g/ha under setting [14] lay within 0 to 29% and the pest or weed control at 140 g/ha under setting [15] was 30 to 44%.
As to `O=C(O)c1nc(-c2ccc(SC(F)(F)F)cc2)c(Cl)cc1Cl` [F89, 3,5-Dichloro-6-(4-((trifluoromethyl)thio)phenyl) picolinic acid], the pest or weed control at 140 g/ha fell in the range of 0 to 29% under setting [1]; 0 to 29% under setting [2]; 0 to 29% under setting [3]; 45 to 59% under setting [4]; 0 to 29% under setting [5]; 0 to 29% under setting [6]. Further, the pest or weed control at 140 g/ha runs as follows: under setting [7], 30 to 44%; under setting [8], 0 to 29%; under setting [9], 0 to 29%; under setting [10], 0 to 29%; under setting [11], 0 to 29%; under setting [12], 0 to 29%. Moreover, the pest or weed control at 140 g/ha is 0 to 29% under setting [13], 0 to 29% under setting [14] and 0 to 29% under setting [15].
As for `COC(=O)c1nc(-c2ccc(SC(F)(F)F)cc2Cl)ccc1Cl` [F90, Methyl 3-chloro-6-(2-chloro-4-((trifluoromethyl)thio)phenyl) picolinate], the pest or weed control at 140 g/ha is 0 to 29% under setting [1]; 75 to 84% under setting [2]; 0 to 29% under setting [3]; 75 to 84% under setting [4]; 85 to 94% under setting [5]; 0 to 29% under setting [6]. Further, the pest or weed control at 140 g/ha reads like this: under setting [7], 60 to 74%; under setting [8], 0 to 29%; under setting [9], 75 to 84%; under setting [10], 30 to 44%; under setting [11], 0 to 29%; under setting [12], 45 to 59%. Also, the pest or weed control at 140 g/ha runs as follows: under setting [13], 60 to 74%; under setting [14], 0 to 29%; under setting [15], 0 to 29%.
As for `COC(=O)c1nc(-c2ccc(SC(F)(F)F)cc2)c(F)cc1Cl` [F91, Methyl 3-chloro-5-fluoro-6-(4-((trifluoromethyl)thio)phenyl) picolinate], the pest or weed control at 140 g/ha under setting [1] was 0 to 29%; the pest or weed control at 140 g/ha under setting [2] is 0 to 29%; the pest or weed control at 140 g/ha under setting [3] was 0 to 29%; the pest or weed control at 140 g/ha under setting [4] lay within 0 to 29%; the pest or weed control at 140 g/ha under setting [5] was 30 to 44%; the pest or weed control at 140 g/ha under setting [6] was in the range of 0 to 29%. For the same compound, the pest or weed control at 140 g/ha is 0 to 29% under setting [7]; 0 to 29% under setting [8]; 30 to 44% under setting [9]; 0 to 29% under setting [10]; 0 to 29% under setting [11]; 0 to 29% under setting [12]. Moreover, the pest or weed control at 140 g/ha lay within 0 to 29% under setting [13], 0 to 29% under setting [14] and 0 to 29% under setting [15].
As for `COC(=O)c1nc(-c2ccc(C(F)(F)F)nc2)c(F)cc1Cl` [F92, methyl 5-chloro-3-fluoro-6′-(trifluoromethyl)-[2,3′-bipyridine]-6-carboxylate], the pest or weed control at 140 g/ha by setting is: under setting [1], 0 to 29%; under setting [2], 0 to 29%; under setting [3], 0 to 29%; under setting [4], 0 to 29%; under setting [5], 0 to 29%; under setting [6], 0 to 29%. For the same compound, the pest or weed control at 140 g/ha lay in the range of 30 to 44% under setting [7]; 0 to 29% under setting [8]; 30 to 44% under setting [9]; 0 to 29% under setting [10]; 0 to 29% under setting [11]; 0 to 29% under setting [12]. Also, the pest or weed control at 140 g/ha by setting is: under setting [13], 0 to 29%; under setting [14], 0 to 29%; under setting [15], 0 to 29%.
As to `COC(=O)c1nc(-c2ccc(C(F)(F)F)cc2)c(F)cc1Cl` [F93, Methyl 3-chloro-5-fluoro-6-(4-(trifluoromethyl)phenyl)picolinate], the pest or weed control at 140 g/ha is, setting by setting: under setting [1], 0 to 29%; under setting [2], 0 to 29%; under setting [3], 0 to 29%; under setting [4], 45 to 59%; under setting [5], 30 to 44%; under setting [6], 0 to 29%. Also, the pest or weed control at 140 g/ha under setting [7] is 60 to 74%; the pest or weed control at 140 g/ha under setting [8] lay within 0 to 29%; the pest or weed control at 140 g/ha under setting [9] lay in the range of 60 to 74%; the pest or weed control at 140 g/ha under setting [10] is 0 to 29%; the pest or weed control at 140 g/ha under setting [11] was in the range of 0 to 29%; the pest or weed control at 140 g/ha under setting [12] lay in the range of 0 to 29%. In addition, the pest or weed control at 140 g/ha is 0 to 29% under setting [13], 0 to 29% under setting [14] and 0 to 29% under setting [15].
Consider `O=C(O)c1nc(-c2ccc(SC(F)(F)F)cc2)ccc1Cl` [F94, 3-Chloro-6-(4-((trifluoromethyl)thio)phenyl)picolinic acid], for which the pest or weed control at 140 g/ha by setting is: under setting [1], 0 to 29%; under setting [2], 0 to 29%; under setting [3], 0 to 29%; under setting [4], 0 to 29%; under setting [5], 30 to 44%; under setting [6], 0 to 29%. The pest or weed control at 140 g/ha lay in the range of 0 to 29% under setting [7]; 0 to 29% under setting [8]; 60 to 74% under setting [9]; 0 to 29% under setting [10]; 0 to 29% under setting [11]; 0 to 29% under setting [12]. Further, the pest or weed control at 140 g/ha by setting is: under setting [13], 0 to 29%; under setting [14], 0 to 29%; under setting [15], 0 to 29%.
Turning to `O=C(O)c1nc(-c2ccc(C(F)(F)F)nc2)ccc1Cl` [F95, 5-Chloro-6′-(trifluoromethyl)-[2,3′-bipyridine]-6-carboxylic acid], the pest or weed control at 140 g/ha lay in the range of 0 to 29% under setting [1]; 0 to 29% under setting [2]; 0 to 29% under setting [3]; 0 to 29% under setting [4]; 0 to 29% under setting [5]; 0 to 29% under setting [6]. The pest or weed control at 140 g/ha under setting [7] is 0 to 29%; the pest or weed control at 140 g/ha under setting [8] is 0 to 29%; the pest or weed control at 140 g/ha under setting [9] is 45 to 59%; the pest or weed control at 140 g/ha under setting [10] fell in the range of 0 to 29%; the pest or weed control at 140 g/ha under setting [11] was 0 to 29%; the pest or weed control at 140 g/ha under setting [12] was 0 to 29%. Further, the pest or weed control at 140 g/ha by setting is: under setting [13], 0 to 29%; under setting [14], 0 to 29%; under setting [15], 0 to 29%.

Source of the values: patent publication US20230017045A1, “PYRIDINE AND PYRIMIDINE CARBOXYLATE HERBICIDES AND METHODS OF USE THEREOF” (Dow AgroSciences LLC, priority 2017, published 2023).
